Biological target: T1, PKG-1α (Homo sapiens, UniProt Q13976)
T1 construct: transfected with an expression plasmid containing a full length WT-PKG-1α cDNA; made in house; host or cells: HEK-293T (methods); the results paragraph b527 says PASMC
T1 sequence (Q13976 2-671): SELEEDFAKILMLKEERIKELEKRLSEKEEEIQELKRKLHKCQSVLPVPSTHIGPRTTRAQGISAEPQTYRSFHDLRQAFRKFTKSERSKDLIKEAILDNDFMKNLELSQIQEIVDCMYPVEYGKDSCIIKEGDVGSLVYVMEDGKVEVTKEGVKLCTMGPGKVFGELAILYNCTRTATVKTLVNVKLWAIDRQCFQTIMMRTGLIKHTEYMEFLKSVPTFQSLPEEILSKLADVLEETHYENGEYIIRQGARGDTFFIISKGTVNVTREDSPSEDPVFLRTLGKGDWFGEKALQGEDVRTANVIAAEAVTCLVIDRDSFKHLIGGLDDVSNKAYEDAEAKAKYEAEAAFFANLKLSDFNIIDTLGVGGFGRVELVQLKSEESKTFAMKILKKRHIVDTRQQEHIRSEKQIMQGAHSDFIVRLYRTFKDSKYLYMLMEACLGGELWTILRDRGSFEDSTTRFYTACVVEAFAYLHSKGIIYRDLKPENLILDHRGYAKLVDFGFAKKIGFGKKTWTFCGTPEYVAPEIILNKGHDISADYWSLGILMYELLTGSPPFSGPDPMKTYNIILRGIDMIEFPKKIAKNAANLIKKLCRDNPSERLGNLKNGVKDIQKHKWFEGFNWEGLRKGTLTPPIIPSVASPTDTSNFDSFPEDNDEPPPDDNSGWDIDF
Assay: [3H]cGMP binding assay
Settings: SIN-1 500 μM 30 min
Protocol: HEK-293T cells were transiently transfected with either the WT-PKG-1α or the Y247FPKG-1α cDNA using Effectene transfection reagent (Qiagen), according to the manufacturer's instructions. Briefly, the cells were split the day before the transfection to low cell densities (25%) and were transfected 24 h later. After 48 h of transfection, the cells were incubated in DMEM serum free media containing 1% FBS and antibiotics for 4 h and then treated with or without SIN-1 (500 μM), for 30 min. This method produced an approximate 70% transfection efficiency of HEK-293T cells, as measured using green fluorescent protein vectors. […]
The batches of supernatant were pooled, and 2 μg of anti-PKG-1α antibody per mg of protein were added to the extract and rocked at 4° C. […] After 15 min of agitation at 4° C., the beads were pelleted by centrifugation, and the supernatant containing the PKG-1α protein was collected, quantified using Bradford reagent, and stored at −80° C.
To assay the binding of cGMP to WT- and Y247F-PKG-1α the enzymes were saturated with cGMP by incubating 50 μl aliquots of the diluted PKG constructs for 60 min at room temperature with 50 μl of [^3H]cGMP and 150 μl of cGMP-binding assay mixture (25 mM K2HPO4, 25 mM KH2PO4, 1 mM EDTA, pH 6.8, 2M NaCl, 200 μM 3-isobutyl-1-methylxanthine). […] The dissociation constant (Kd) values were determined using GraphPad Prism graphics.

Maximal [3H]cGMP binding to WT-PKG-1α: significantly attenuated
Substance: 3-morpholinosydnonimine N-ethylcarbamide [SIN-1]
